Test results: patent publication US6825172B2, “3-descladinosyl-6-O-carbamoyl and 6-O-carbonoyl macrolide antibacterial agents” (Janssen Pharmaceutica, NV, priority 2002, dated 2004)
Converted amounts (≈) assume the structure as drawn. Like-named read-outs stand apart in the source and are kept apart here.

Columns and labels:
Experiment in all cases: MIC, microdilution broth method (NCCLS)
Assay type in all cases: cell-based
E. faecalis ATCC29212 = details: Enterococcus faecalis, read-out: MIC Values, C: E. faecalis ATCC29212
Method: (§1) Minimal inhibitory concentration (MIC) has been an indicator of in vitro antibacterial activity widely used in the art. The in vitro antimicrobial activity of the compounds was determined by the microdilution broth method following the test method from the National Committee for Clinical Laboratory Standards (NCCLS). This method is described in the NCCLS Document M7-A4, Vol.17, No.2, “Methods for Dilution Antimicrobial Susceptibility Test for Bacteria that Grow Aerobically—Fourth Edition”, which is incorporated herein by reference.
(§2) In this method two-fold serial dilutions of drug in cation adjusted Mueller-Hinton broth are added to wells in microdilution trays. The test organisms are prepared by adjusting the turbidity of actively growing broth cultures so that the final concentration of test organism after it is added to the wells is approximately 5×10^4 CFU/well.
(§3) Following inoculation of the microdilution trays, the trays are incubated at 35 °C for 16-20 hours and then read. […] The amount of growth in the wells containing the test compound is compared with the amount of growth in the growth-control wells (no test compound) used in each tray. As set forth in Table 1, compounds of the present invention were tested against a variety of Gram positive and Gram negative pathogenic bacteria resulting in a range of activities depending on the organism tested.

S. aureus ATCC29213 = details: Staphylococcus aureus, read-out: MIC Values, B: S. aureus ATCC29213
Method: as §1, §2, §3

S. pneumoniae ATCC49619 = details: Streptococcus pneumoniae, read-out: MIC Values, D: S. pneumoniae ATCC49619
Method: as §1, §2, §3

[1] = Table 1, 6-Carbamoyl-3-Acyl Macrolide Derivatives
[2] = Table 2, 3,6-Dicarbamoyl Macrolide Derivatives
[3] = Table 3, 6-Carbonate Macrolide Derivatives

Compound | MIC (E. faecalis ATCC29212; [1]) [µg/mL] | MIC (S. aureus ATCC29213; [1]) [µg/mL] | MIC (S. pneumoniae ATCC49619; [1]) [µg/mL] | MIC (E. faecalis ATCC29212; [2]) [µg/mL] | MIC (S. aureus ATCC29213; [2]) [µg/mL] | MIC (S. pneumoniae ATCC49619; [2]) [µg/mL] | MIC (E. faecalis ATCC29212; [3]) [µg/mL] | MIC (S. aureus ATCC29213; [3]) [µg/mL] | MIC (S. pneumoniae ATCC49619; [3]) [µg/mL]
CC[C@H]1OC(=O)[C@H](C)[C@@H](OC(=O)Cc2cccnc2)[C@H](C)[C@@H](O[C@@H]2O[C@H](C)C[C@H](N(C)C)[C@H]2O)[C@](C)(OC(=O)NC/C=C/c2cnc(C(C)(C)C)nc2)C[C@@H](C)C(=O)[C@H](C)[C@H]2NC(=O)O[C@@]21C [Compound 42] | 0.5 (≈ 0.534 µM) | 1 (≈ 1.07 µM) | 0.06 (≈ 0.064 µM) | – | – | – | – | – | –
CC[C@H]1OC(=O)[C@H](C)[C@@H](OC(=O)C(C)C)[C@H](C)[C@@H](O[C@@H]2O[C@H](C)C[C@H](N(C)C)[C@H]2O)[C@](C)(OC(=O)NC/C=C/C=C/c2cnc(C(C)C)nc2)C[C@@H](C)C(=O)[C@H](C)[C@H]2NC(=O)O[C@@]21C [Compound 44] | 2 (≈ 2.22 µM) | 2 (≈ 2.22 µM) | 0.25 (≈ 0.278 µM) | – | – | – | – | – | –
CC[C@H]1OC(=O)[C@H](C)[C@@H](OC(=O)C(C)C)[C@H](C)[C@@H](O[C@@H]2O[C@H](C)C[C@H](N(C)C)[C@H]2O)[C@](C)(OC(=O)NC/C=C/c2ccc(-c3cnccn3)cc2)C[C@@H](C)C(=O)[C@H](C)[C@H]2NC(=O)O[C@@]21C [Compound 45] | 0.5 (≈ 0.551 µM) | 0.5 (≈ 0.551 µM) | 0.06 (≈ 0.0661 µM) | – | – | – | – | – | –
CC[C@H]1OC(=O)[C@H](C)[C@@H](OC(=O)C(C)C)[C@H](C)[C@@H](O[C@@H]2O[C@H](C)C[C@H](N(C)C)[C@H]2O)[C@](C)(OC(=O)NC/C=C/c2ccc(-c3cccnn3)cc2)C[C@@H](C)C(=O)[C@H](C)[C@H]2NC(=O)O[C@@]21C [Compound 46] | 0.12 (≈ 0.132 µM) | 0.5 (≈ 0.551 µM) | 0.06 (≈ 0.0661 µM) | – | – | – | – | – | –
CC[C@H]1OC(=O)[C@H](C)[C@@H](OC(=O)C(C)C)[C@H](C)[C@@H](O[C@@H]2O[C@H](C)C[C@H](N(C)C)[C@H]2OC(C)=O)[C@](C)(OC(=O)NC/C=C/c2ccc(-n3cccn3)cc2)C[C@@H](C)C(=O)[C@H](C)[C@H]2NC(=O)O[C@@]21C [Compound 48] | 0.5 (≈ 0.533 µM) | 1 (≈ 1.07 µM) | 0.06 (≈ 0.064 µM) | – | – | – | – | – | –
CC[C@H]1OC(=O)[C@H](C)[C@@H](OC(=O)C(C)C)[C@H](C)[C@@H](O[C@@H]2O[C@H](C)C[C@H](N(C)C)[C@H]2O)[C@](C)(OC(=O)NC/C=C/c2ccc(-c3ccn(C)n3)cc2)C[C@@H](C)C(=O)[C@H](C)[C@H]2NC(=O)O[C@@]21C [Compound 49] | 1 (≈ 1.1 µM) | 1 (≈ 1.1 µM) | 0.06 (≈ 0.0659 µM) | – | – | – | – | – | –
CC[C@H]1OC(=O)[C@H](C)[C@@H](OC(=O)N(C)OC)[C@H](C)[C@@H](O[C@@H]2O[C@H](C)C[C@H](N(C)C)[C@H]2O)[C@](C)(OC(=O)NC/C=C/c2ccc(-c3ncccn3)cc2)C[C@@H](C)C(=O)[C@H](C)[C@H]2NC(=O)O[C@@]21C [Compound 68] | – | – | – | 0.5 (≈ 0.54 µM) | 1 (≈ 1.08 µM) | 0.06 (≈ 0.0649 µM) | – | – | –
CC[C@H]1OC(=O)[C@H](C)[C@@H](OC(=O)N(CC)CC)[C@H](C)[C@@H](O[C@@H]2O[C@H](C)C[C@H](N(C)C)[C@H]2O)[C@](C)(OC(=O)NC/C=C/c2ccc(-c3cnccn3)cc2)C[C@@H](C)C(=O)[C@H](C)[C@H]2NC(=O)O[C@@]21C [Compound 69] | – | – | – | 0.5 (≈ 0.534 µM) | 0.5 (≈ 0.534 µM) | 0.06 (≈ 0.064 µM) | – | – | –
CC[C@H]1OC(=O)[C@H](C)[C@@H](OC(=O)N(CC)CC)[C@H](C)[C@@H](O[C@@H]2O[C@H](C)C[C@H](N(C)C)[C@H]2O)[C@](C)(OC(=O)NC/C=C/c2ccc(-n3cccn3)cc2)C[C@@H](C)C(=O)[C@H](C)[C@H]2NC(=O)O[C@@]21C [Compound 70] | – | – | – | 0.5 (≈ 0.54 µM) | 1 (≈ 1.08 µM) | 0.06 (≈ 0.0649 µM) | – | – | –
CC[C@H]1OC(=O)[C@H](C)[C@@H](OC(=O)N(CC)CC)[C@H](C)[C@@H](O[C@@H]2O[C@H](C)C[C@H](N(C)C)[C@H]2O)[C@](C)(OC(=O)NC/C=C/c2ccc(-c3cccnn3)cc2)C[C@@H](C)C(=O)[C@H](C)[C@H]2NC(=O)O[C@@]21C [Compound 71] | – | – | – | 1 (≈ 1.07 µM) | 1 (≈ 1.07 µM) | 0.06 (≈ 0.064 µM) | – | – | –
CC[C@H]1OC(=O)[C@H](C)[C@@H](OC(=O)N(CC)CC)[C@H](C)[C@@H](O[C@@H]2O[C@H](C)C[C@H](N(C)C)[C@H]2O)[C@](C)(OC(=O)NC/C=C/c2ccc(-n3cncn3)cc2)C[C@@H](C)C(=O)[C@H](C)[C@H]2NC(=O)O[C@@]21C [Compound 72] | – | – | – | 0.5 (≈ 0.54 µM) | 0.5 (≈ 0.54 µM) | 0.06 (≈ 0.0648 µM) | – | – | –
CC[C@H]1OC(=O)[C@H](C)[C@@H](OC(=O)N(CC)CC)[C@H](C)[C@@H](O[C@@H]2O[C@H](C)C[C@H](N(C)C)[C@H]2O)[C@](C)(OC(=O)NC/C=C/c2ccc(-c3ccn(C)n3)cc2)C[C@@H](C)C(=O)[C@H](C)[C@H]2NC(=O)O[C@@]21C [Compound 73] | – | – | – | 0.5 (≈ 0.532 µM) | 1 (≈ 1.06 µM) | 0.12 (≈ 0.128 µM) | – | – | –
CC[C@H]1OC(=O)[C@H](C)[C@@H](OC(=O)N(CC)CC)[C@H](C)[C@@H](O[C@@H]2O[C@H](C)C[C@H](N(C)C)[C@H]2OC(C)=O)[C@](C)(OC(=O)OC/C=C/c2ccc(-c3ncccn3)cc2)C[C@@H](C)C(=O)[C@H](C)[C@H]2NC(=O)O[C@@]21C [Compound 75] | – | – | – | – | – | – | 0.5 (≈ 0.51 µM) | 1 (≈ 1.02 µM) | 0.25 (≈ 0.255 µM)

Continued, values first:

MIC (E. faecalis ATCC29212; [1]) [µg/mL] | MIC (S. aureus ATCC29213; [1]) [µg/mL] | MIC (S. pneumoniae ATCC49619; [1]) [µg/mL] | MIC (E. faecalis ATCC29212; [2]) [µg/mL] | MIC (S. aureus ATCC29213; [2]) [µg/mL] | MIC (S. pneumoniae ATCC49619; [2]) [µg/mL] | MIC (E. faecalis ATCC29212; [3]) [µg/mL] | MIC (S. aureus ATCC29213; [3]) [µg/mL] | MIC (S. pneumoniae ATCC49619; [3]) [µg/mL] | Compound
– | – | – | – | – | – | 0.5 (≈ 0.522 µM) | 1 (≈ 1.04 µM) | 0.06 (≈ 0.0626 µM) | CC[C@H]1OC(=O)[C@H](C)[C@@H](OC(=O)Cc2cccnc2)[C@H](C)[C@@H](O[C@@H]2O[C@H](C)C[C@H](N(C)C)[C@H]2O)[C@](C)(OC(=O)OC/C=C/c2ccc(-c3cnccn3)cc2)C[C@@H](C)C(=O)[C@H](C)[C@H]2NC(=O)O[C@@]21C [Compound 77]
– | – | – | – | – | – | 0.25 (≈ 0.261 µM) | 0.25 (≈ 0.261 µM) | 0.03 (≈ 0.0313 µM) | CC[C@H]1OC(=O)[C@H](C)[C@@H](OC(=O)Cc2cccnc2)[C@H](C)[C@@H](O[C@@H]2O[C@H](C)C[C@H](N(C)C)[C@H]2O)[C@](C)(OC(=O)OC/C=C/c2ccc(-c3ncccn3)cc2)C[C@@H](C)C(=O)[C@H](C)[C@H]2NC(=O)O[C@@]21C [Compound 78]
– | – | – | – | – | – | 0.5 (≈ 0.522 µM) | 1 (≈ 1.04 µM) | 0.06 (≈ 0.0626 µM) | CC[C@H]1OC(=O)[C@H](C)[C@@H](OC(=O)Cc2cccnc2)[C@H](C)[C@@H](O[C@@H]2O[C@H](C)C[C@H](N(C)C)[C@H]2O)[C@](C)(OC(=O)OC/C=C/c2ccc(-c3cccnn3)cc2)C[C@@H](C)C(=O)[C@H](C)[C@H]2NC(=O)O[C@@]21C [Compound 79, 3-Pyridineacetic acid, (3aS,4R,7R,8S,9S,10R,11R,13R,15R,15aR)-4-ethyltetradecahydro-3a,7,9,11,13,15-hexamethyl-2,6,14-trioxo-11-[[[[(2E)-3-[4-(3-pyridazinyl)phenyl]-2-propenyl]oxy]carbonyl]oxy]-10-[[3,4,6-trideoxy-3-(dimethylamino)-β-D-xylo-hexopyranosyl]oxy]-2H-oxacyclotetradecino[4,3-d]oxazol-8-yl ester]
– | – | – | – | – | – | 0.5 (≈ 0.537 µM) | 1 (≈ 1.07 µM) | 0.06 (≈ 0.0644 µM) | CC[C@H]1OC(=O)[C@H](C)[C@@H](OC(=O)Cc2cccnc2)[C@H](C)[C@@H](O[C@@H]2O[C@H](C)C[C@H](N(C)C)[C@H]2O)[C@](C)(OC(=O)OC/C=C/c2cnc3ccccc3c2)C[C@@H](C)C(=O)[C@H](C)[C@H]2NC(=O)O[C@@]21C [Compound 80]
– | – | – | – | – | – | 0.25 (≈ 0.261 µM) | 0.5 (≈ 0.523 µM) | 0.06 (≈ 0.0628 µM) | CC[C@H]1OC(=O)[C@H](C)[C@@H](OC(=O)Cc2cccnc2)[C@H](C)[C@@H](O[C@@H]2O[C@H](C)C[C@H](N(C)C)[C@H]2O)[C@](C)(OC(=O)OCC#Cc2ccc(-c3ncccn3)cc2)C[C@@H](C)C(=O)[C@H](C)[C@H]2NC(=O)O[C@@]21C [Compound 81]
– | – | – | – | – | – | 0.5 (≈ 0.55 µM) | 0.5 (≈ 0.55 µM) | 0.06 (≈ 0.066 µM) | CC[C@H]1OC(=O)[C@H](C)[C@@H](OC(=O)C(C)C)[C@H](C)[C@@H](O[C@@H]2O[C@H](C)C[C@H](N(C)C)[C@H]2O)[C@](C)(OC(=O)OC/C=C/c2ccc(-c3cccnn3)cc2)C[C@@H](C)C(=O)[C@H](C)[C@H]2NC(=O)O[C@@]21C [Compound 82]
